Experimental data: patent publication US20250312504A1, “VOLATILE COMPOSITION […] FOR COMPOSITIONS COMPRISING A META-(C1-C4 ALKOXY) […]” (The Procter & Gamble Company, priority 2024, published 2025)

Experiments:
Format in all cases: physicochemical
[1] = Electronic air freshener device test of DPM solutions (crystallization, weight loss); conditions: for crystal formation in air freshener device over time: 2, 5 and 10 wt. % solutions in DPM, plugged-in device, inspected daily for 4 weeks
Method: Each solution (24 mL) was added to a P&G electronic air freshener device and plugged in to a standard 120v outlet. The devices were inspected and weighed daily for 4 weeks. The mass of each device was no longer recorded after the device stopped losing weight.
FIGS. 3-5 show the % weight loss of each solution in the P&G electronic air freshener device.

[2] = Headspace Method, air/solvent partition out of isopropyl myristate (IPM); conditions: relative to ethylvanillin
Method: (§1) Perfume headspace data is collected for various materials according to the method provided below.
(§2) The partition coefficients are calculated by determining the amount of PRM in the headspace above a solution with a known concentration using a GC/FID-MS (Agilent 7890 and 5977A MSD) with a thermal desorption unit (Gerstel MPS2) and Dynamic Headspace Sampler (Gerstel DHS). This technique allows for automated headspace collections using the MultiPurposeSampler (MPS). The PRMs of interest are prepared at a known concentration in isopropyl myristate (IPM) or dipropylene glycol methyl ether (DPM), and 1 mL is pipetted in a 20 mL headspace vial. […]
(§3) Analytical standards can be obtained from Sigma Aldrich, St. Louis, MO and BioSynth, UK. A stock solution is prepared at approximately 0.5 g/L. The stock solution is then diluted to 4 to 5 concentrations ranging from approximately 0.05 g/L to 0.00005 g/L. These standard solutions are then analyzed by GC/MS. […]
(§4) Quantification of the headspace is performed by the PRM target m/z area response of the perfume component and the linear equation of the calibration plot.
(§5) Perfume headspace data is collected for various materials according to the Headspace Method provided above in the Test Methods section. The Air/Solvent partition coefficients are determined and indexed accordingly (e.g., where the partition coefficient for ethylvanillin is set at 1.00).

[3] = Headspace Method, air/solvent partition out of dipropylene glycol methyl ether (DPM); conditions: relative to ethylvanillin
Method: as §1, §2, §3, §4, §5

## CCOc1cc(C=O)ccc1O [Ethylvanillin, reference compound]
[1]
  crystal formation in air freshener device over time: crystals were seen to form

## COc1cc(C=O)ccc1O [Vanillin, reference compound]
[1]
  crystal formation in air freshener device over time: crystals were seen to form

## CCOc1cccc(C=O)c1O [ortho-Ethylvanillin, 2-hydroxy-3-ethoxybenzaldehyde]
[2]
  goes into the headspace more than ethylvanillin out of IPM: about 6.2 ×
[1]; 2, 5 and 10 wt. % in DPM, most noticeable in the 5% and 10% solutions
  weight loss rate of solution in air freshener device: steeper weight loss rate than the EV and V solutions
[1]
  crystal formation in air freshener device over time: no crystals formed
[3]
  goes into the headspace more than ethylvanillin out of DPM: about 94 ×
